Measurements as given in patent US20250134888A1, “INHIBITORS OF MALIC ENZYME 1” (Cornell University, priority 2022, published 2025).
Read-outs that look alike come from different tables or passages of the source.

Experiments:
CAPAN1 = test: Activity in Capan1 cells (ME1 responder line); format: cell-based; details: Homo sapiens
Experimental: (§1) Compound 1-4 were tested (Table 1) for inhibition of ME1. […] Capan1 is an ME1 responder line. H23 is an ME1 non-responder line.
(§2) Compound 5-7 were tested (Table 2) for inhibition of ME1. […] Capan1 is an ME1 responder line. H23 is an ME1 non-responder line.

H23 = test: Activity in H23 cells (ME1 non-responder line); format: cell-based; details: Homo sapiens
Experimental: as §1, §2

Permeability pH 6.5 = format: in vitro ADME; details: PAMPA
[1] = CAPAN-1, Table 1, read-out: CAPAN1 IC50/EC50
[2] = NCI-H23, Table 1, read-out: H23 IC50/EC50
[3] = CAPAN-1, Table 2, read-out: CAPAN1 IC50/EC50
[4] = NCI-H23, Table 2, read-out: H23 IC50/EC50

Compound | EC50 (CAPAN1; [1]) [µM] | EC50 (H23; [2]) [µM] | Papp (Permeability pH 6.5; Table 1) [×10⁻⁶ cm/s] | EC50 (CAPAN1; [3]) [µM] | EC50 (H23; [4]) [µM] | Papp (Permeability pH 6.5; Table 2) [×10⁻⁶ cm/s]
CC1CCN(c2ccc3nnc(-c4cccc(CN(C)C)c4)n3n2)CC1 [Compound 1] | 16.1 | 8.1 | 26.5 | – | – | –
CCN1CCC(C(=O)Nc2cccc(-c3nnc4ccc(N5CCC(C)CC5)nn34)c2)CC1 [Compound 2] | 3.1 | 8.6 | < 0.3 | – | – | –
CC1CCN(c2nc3c(c(N4CCc5n[nH]cc5C4)n2)CS(=O)(=O)C3)CC1 [Compound 3] | 26.6 | 4.8 | > 30 | – | – | –
Cc1cc(=O)c(O)c(CN2CC=C(c3ccc(F)cc3)CC2)n1C [Compound 7] | – | – | – | 26.6 | 5.7 | –

Continued, values first:

EC50 (CAPAN1; [1]) [µM] | EC50 (H23; [2]) [µM] | Papp (Permeability pH 6.5; Table 1) [×10⁻⁶ cm/s] | EC50 (CAPAN1; [3]) [µM] | EC50 (H23; [4]) [µM] | Papp (Permeability pH 6.5; Table 2) [×10⁻⁶ cm/s] | Compound
1.8 | – | > 30 | – | – | – | Cc1nn(-c2ccc(Cl)cc2)c2ncc(C(=O)NC3CCN(C)CC3)cc12 [Compound 4]
– | – | – | 2.4 | 8.6 | 15.1 | Cc1cc(=O)c(O)cn1CCN1CCCc2ccccc21 [Compound 5]
– | – | – | 0.78 | 1.7 | 18.1 | Cc1cc(=O)c(O)cn1CCCc1ccc(Cl)cc1 [Compound 6]
